Three compounds from patent publication US7893048B2, “2-azetidinone derivatives as cholesterol absorption inhibitors for the treatment of hyperlipidaemic conditions” (AstraZeneca AB, priority 2005, dated 2011) can be followed below.

Series [1] relates to 14C-cholesterol absorption. Description: In vivo testing of cholesterol absorption inhibitors (A). The note with it: Mus musculus, po; 0.2 μmol/kg by gavage, procedure A, C57BL/6 female mice. Here is the method: In Vivo Testing of Cholesterol Absorption Inhibitors (A)
C57BL/6 female mice were maintained on regular chow diet and housed in individual cages to collect faeces. Mice were fasted for 3 hours and then gavaged with vehicle or compound. Half an hour later the mice were gavaged with radiolabelled cholesterol. Six hours after the ^14C-cholesterol gavage blood samples were taken via the tail and plasma prepared to determine how much cholesterol were absorbed. 24 hours after the gavage of ^14C-cholesterol the mice were bled and plasma were prepared for analysis. Faeces were collected for 24 hours to assess absorption efficiency.

Series [2] in a line: Absorption in a Caco-2 cells model. The note with it: human. In kind it is in vitro ADME. As for the experimental part: Absorption of the compounds of formula (I) was tested in a Caco-2 cells model (Gastroenterology 1989, 96, 736): […]

For `NCCCC[C@@H](NC(=O)CNC(=O)COc1ccc([C@@H]2[C@@H](SCC(O)c3ccc4c(c3)CCO4)C(=O)N2c2ccc(F)cc2)cc1)C(=O)O` (stereo partly drawn) [Example 3, N-({4-[(2R,3R)-3-{[2-(2,3-dihydro-1-benzofuran-5-yl)-2-hydroxyethyl]thio}-1-(4-fluorophenyl)-4-oxoazetidin-2-yl]phenoxy}acetyl)glycyl-D-lysine], the inhibition at 0.2 µmol/kg in series [1] turned out to be 59%. In turn, `CC(C)(C)[C@@H](NC(=O)CNC(=O)COc1ccc([C@@H]2[C@@H](SCC(O)c3ccc4c(c3)CCO4)C(=O)N2c2ccc(F)cc2)cc1)C(=O)O` (stereo partly drawn) [Example 4, N-({4-[(2R,3R)-3-{[2-(2,3-dihydro-1-benzofuran-5-yl)-2-hydroxyethyl]thio}-1-(4-fluorophenyl)-4-oxoazetidin-2-yl]phenoxy}acetyl)glycyl-3-methyl-D-valine] registered an inhibition at 0.2 µmol/kg in series [1] of 53%. `O=C(COc1ccc([C@@H]2[C@@H](SCC(O)c3ccc4c(c3)CCO4)C(=O)N2c2ccc(F)cc2)cc1)NCC(=O)N[C@H](CC1CCCCC1)C(=O)O` (stereo partly drawn) [Example 1, N-({4-[(2R,3R)-3-{[2-(2,3-dihydro-1-benzofuran-5-yl)-2-hydroxyethyl]thio}-1-(4-fluorophenyl)-4-oxoazetidin-2-yl]phenoxy}acetyl)glycyl-3-cyclohexyl-D-alanine] registered a Papp in series [2] of 0.05 ×10⁻⁶ cm/s.
